The record followed here is patent US20260049282A1, “METHOD FOR REMOVING SENESCENT CELL, AND METHOD FOR PREPARING SENESCENT CELL” (The University of Tokyo, priority 2018, published 2026).

For test [1], the system named is senescent cells (senescence-induced normal human fibroblasts HCA2). The experiment in a line: Viable cell count (trypan blue) of senescent cells treated with glutaminase inhibitor. Format: cell-based. The protocol:
RO3306 (SIGMA-ALDRICH) (final concentration: 9 μM) was added to normal human fibroblasts (HCA2), followed by culture at 37° C. and 5% CO2 for 16 hours. Next, culture was performed at 37° C. and 5% CO2 for 8 hours in a culture medium containing RO3306 (final concentration: 9 μM) and Nutlin-3a (SIGMA-ALDRICH) (final concentration: 10 μM), and then culture was performed at 37° C. and 5% CO2 for 48 hours in a culture medium containing Nutlin-3a (final concentration: 10 μM). Culture was performed at 37° C. and 5% CO2 for 9 days while replacing the medium with a medium containing BI2536 (SIGMA-ALDRICH) (final concentration: 100 nM) every 3 days. Thereafter, senescence induction was carried out by performing culture at 37° C. and 5% CO2 for 9 days while replacing the medium with a normal medium (FIG. 1A).
(§1) Senescent cells and normal cells were seeded in 6-cm culture dishes such that approximately 10,000 cells were in each dish.

Test [2] deals with normal cells (normal human fibroblasts HCA2). Put plainly: Viable cell count (trypan blue) of normal cells treated with glutaminase inhibitor. The class given is cell-based. The following applies: BPTES final concentration 10 μM, 3 days. The method, then:
as §1

Test [3] concerns IL-6 and IL-8 mRNA expression. The experiment in a line: qPCR of SASP factors IL-6 and IL-8 mRNA in senescent cells. The class given is cell-based, human. The following applies: BPTES 2.5 μM, 24 hours. The protocol: After reverse transcription from total RNA into cDNA using the SuperScript II cDNA synthesis kit (Invitrogen) was performed, qPCR analysis was performed using the Power SYBR Green PCR Master Mix (Applied Biosystems) so as to measure the IL-6 and IL-8 expression levels. Primers for detecting the IL-6 and IL-8 mRNA expression levels are shown below.
On the technique in general: Quantitative PCR measures a nucleic acid by following its amplification.

Test [4] relates to S6K protein T389 phosphorylation (indicator of activation of mTOR). Put plainly: Western blotting of S6K protein T389 phosphorylation in senescent cells. The class given is cell-based, human. The method, then: Further, the molecular mechanism of SASP inhibition was analyzed. […] Cell extracts were prepared from the cultured cells using Laemmli-buffer (2% SDS, 10% glycerol, 5% 2-mercaptoethanol, 0.002% bromophenol blue, and 62.5 mM Tris HCl at pH 6.8). Cell extracts (20 to 50 μg) were separated by SDS-PAGE, and after transcription to PVDF membrane, Western blotting was performed using an antibody to the T389 phosphorylation site of the […] protein (CST), an antibody to the S6K protein (CST), and an antibody to the p16 protein (abcam), and detection was performed by ECL.
On the technique in general: Immunoblotting shows a protein as a band on a membrane.

Test [5] concerns ammonia production in senescent cells. The experiment in a line: Intracellular ammonia quantification (ammonia assay kit). The following applies: BPTES final concentration 10 μM, 24 hours. Format: cell-based, human. The text has this: Senescent cells and normal cells were separately seeded in 10-cm culture dishes such that approximately 50,000 cells were in each dish. […] Thereafter, the amount of ammonia in cells was quantified using the ammonia assay kit (abcam).

For test [6], the system named is intracellular pH in senescent cells. The experiment in a line: Intracellular pH measurement. Format: cell-based, human. Set-up: dose or concentration left out as unconfirmed. Particulars: BPTES final concentration, 24 hours; normal level about 7.4. The protocol: Next, senescent cells and normal cells were separately seeded in 6-cm well plates such that approximately 50,000 cells were in each plate. […] The medium was removed, culture was performed at 37° C. and 5% CO2 for 10 minutes in a HEPES solution containing […] (DOJINDO LABORATORIES) at a final concentration of 3 μM, and washing with the HEPES solution was performed three times. Thereafter, luminescence was measured with a plate reader. In order to determine the pH value, the amount of luminescence of cells treated with the HEPES solution (pH 6.0 to 7.6) containing nigericin at a final concentration of 10 μM was corrected.

Test [7] has as its system senescent cells. Put plainly: Effect of mPTP inhibitors on cell death of BPTES-treated cells (trypan blue count). The following applies: BPTES 10 μM alone. The class given is cell-based, human. The protocol:
The previous reports have shown that lowering intracellular pH causes apoptosis-independent cell death through the opening of mitochondrial permeability transition pore (mPTP) by the BNIP3 protein. Therefore, the effects of mPTP inhibitors (DUB and CsA) on BPTES-treated cells were examined.
(§2) Senescent cells and normal cells were separately seeded in 6-cm culture dishes such that approximately 10,000 cells were in each dish. […] Thereafter, the cells were stained with trypan blue every 24 hours, and the number of viable cells was counted using a hemocytometer.

Test [8] has as its system senescent cells. The experiment in a line: Cell viability of BPTES-treated cells in weakly basic medium (trypan blue count). Format: cell-based, human. The following applies: BPTES 10 μM. The method, then: Next, the pH of the medium of BPTES-treated cells was made weakly basic (pH 8.0 or pH 8.5), and the cell viability was examined.
as §2

Test [9] concerns p16 mRNA (marker of senescent cells). The experiment in a line: Removal of senescent cells in vivo: p16 mRNA by qPCR in organs of aged mice. Particulars: 96-week-old C57BL6/N male mice, 12.5 mg/kg body weight once a week for 1 month. The protocol: Then, each mouse was dissected, RNA was extracted by homogenizing the heart, brain, kidney, and liver, and total RNA was prepared using the RNeasy mini kit (Qiagen) according to the attached protocol and reverse transcribed into cDNA using the ReverTra Ace qPCR RT kit (Takara). Using the obtained cDNA, the expression level of p16 mRNA, which is a marker of senescent cells, was analyzed by qPCR using Power SYBR Green PCR Master Mix (Applied Biosystems). The p16 mRNA expression level was corrected by the value of GAPDH. Primers for detecting the p16 mRNA expression level are shown below.

In test [10] the test system is aged mice (76 weeks old). Put plainly: Age-associated dysfunction of kidney, lung, heart and liver in aged mice. The class given is in vivo. Particulars: BPTES 0.25 mg/20 g/200 μl intraperitoneally, 1 month. The text has this:
It is examined whether removal of senescent cells by inhibition of glutaminolysis could improve aging or age-associated organ dysfunction.
The kidney, lung, liver, and heart were embedded with an OCT compound, thereby preparing frozen sections. Thereafter, tissue staining with hematoxylin-eosin (H&E), tissue staining with a Masson trichrome (MT) reagent, a periodic acid Schiff (PAS) reagent (Fisher Scientific), or immunostaining with DAB (3,3′-diaminobenzidine tetrahydrochloride) (DAKO) using an anti-F4-80 antibody (CST) was performed. After staining, tissue sections were observed under a microscope.
Kidney glomerulosclerosis was evaluated for 40 glomeruli per individual based on PAS-positive intensity and range. In addition, the serum urea concentration and creatinine concentration were measured using the Urea Assay kit (Abcam) and the Creatinine Assay kit (Abcam), respectively.
The degree of lung fibrosis was assessed by MT staining. […] In addition, when the MT-stained area was quantified by a BZ-X analyzer (Keyence), the degree of fibrosis was improved in the lungs of BPTES-treated mice as compared with the lungs of control mice (FIG. 7B, top).
For the heart, MT staining of heart tissue sections was performed so as to assess the degree of fibrosis (FIG. 8A). In addition, the heart weight was weighed, and the cardiomyocyte size was measured with a BZ-X analyzer (Keyence). As for the heart, the degree of fibrosis in the heart of BPTES-treated mice was improved as compared with the control mice (FIG. 8B).
Liver tissue sections were immunostained with an anti-F4/80 antibody (FIG. 9A) so as to assess the degree of macrophage infiltration. The degree of macrophage infiltration in the liver of BPTES-treated mice was improved compared to control mice (FIG. 9B).

Test [11] deals with mice fed a high fat diet. Put plainly: Obesity-associated senescent cell accumulation, macrophage infiltration and hypertrophy of white adipose tissue (high-fat diet mice). The class given is in vivo. The following applies: high-fat diet 8 weeks, BPTES 0.25 mg/20 g/200 μl i.p. 3 times a week in latter 4 weeks. The protocol:
Eight-week-old male mice (C57BL/6N) were maintained on a high-fat diet (HFD32, CLEA Japan) or a normal diet for 8 weeks. […] Then, white adipose tissue was collected from mice, and the accumulation of senescent cells was examined by SA-β-gal staining, and macrophage infiltration was examined by immunostaining with the anti-F4/80 antibody. In situ staining with SA-β-gal and the determination of the abundance ratio of SA-β-gal positive cells were carried out as described in 2-5-2. The degree of macrophage infiltration was determined as described in 2-5-1. The adipocyte size was measured with a BZ-X analyzer (Keyence).

Test [12] deals with ApoE knockout mice on atherogenetic diet. Put plainly: Obesity-associated atherosclerosis in ApoE knockout mice (Sudan IV staining of aorta). Format: in vivo. The following applies: atherogenetic diet 8 weeks, BPTES 0.25 mg/20 g/200 μl i.p. 3 times a week in latter 4 weeks. The method, then:
C57BL/6J ApoE knockout mice (8 weeks old) were maintained on an atherogenetic diet (D12108C, Research Diets Inc.) for 8 weeks. […] In addition, C57BL/6J wild-type male mice (8 weeks old) were maintained on a normal diet as controls. All aortas except the arterial arch were cleanly depleted of adventitial fat, incised, and fixed flat in 4% […] at 25° C. for 12 hours. The aorta was washed with 70% ethanol for 5 minutes, incubated in 0.5% Sudan IV (in 1:1 acetone/ethanol) for 5 minutes, and then washed 3 times with 80% ethanol for 1 minute. Plaque formed in the aorta was stained with Sudan IV, the Sudan IV-positive area was quantified with ImageJ, and the plaque number was counted under a microscope.

Test [13] has as its system mice on choline-deficient L-amino acid-defined high-fat diet. Put plainly: Liver dysfunction associated with non-alcoholic steatohepatitis (choline-deficient L-amino acid-defined high-fat diet mice). The following applies: NASH diet 8 weeks, BPTES 0.25 mg/20 g/200 μl i.p. 3 times a week in latter 4 weeks. The class given is in vivo. The method, then: Eight-week-old male mice (C57BL/6N) were maintained on a choline-deficient L-amino acid-defined high-fat diet (A06071302, Research Diets Inc.) for 8 weeks. […] The serum AST level and the hydroxyproline (OH-Pro) level in the liver were measured by the AST assay kit (Abcam) and the Hydroxyproline assay kit (Abcam), respectively. In addition, the expression levels of p16, KGA, and IL-6 were measured by qPCR. Primers for qPCR are shown below.

`O=C(Cc1ccccc1)Nc1nnc(CCSCCc2nnc(NC(=O)Cc3ccccc3)s2)s1` [BPTES, bis-2-(5-phenylacetamido-1,3,4-thiadiazol-2-yl)ethyl sulfide]: the “impact on the survival of senescent cells” value in test [1] (BPTES final concentration 2.5 μM) is “little impact”. Moreover, the “number of cells (viable cells)” value in [2] is “increase in the number of cells”. In addition, in [3], the “IL-6 mRNA expression” value was “inhibits mRNA expression” and the “IL-8 mRNA expression” value was “inhibits mRNA expression”. In test [4] (BPTES 2.5 μM, 24 hours), the “phosphorylation of the S6K protein T389” value is “inhibits phosphorylation”. Also, in [5], the “ammonia production in senescent cells” value is given as “suppresses the increased ammonia production in senescent cells to the same level as in normal cells”. Besides, the “intracellular pH in senescent cells” value in test [6] is reported as “about 6.0”. The “cell death seen with BPTES treatment” value in [7] is given as “at least 90%”. Also, the “cell death seen with BPTES treatment” value in [8] (medium not weakly basic (pH 7.4)) was “at least 90%”. Moreover, the “cell death with BPTES under weakly basic pH conditions” value in test [8] (medium pH 8.0 or pH 8.5) was “about 30%”. Further, in test [9], the “p16 mRNA expression in the brain” value is given as “decreased”, the “p16 mRNA expression in the heart” value is “decreased”, the “p16 mRNA expression in the kidney” value is “decreased” and the “p16 mRNA expression in the liver” value is on record as “decreased”. Also, in test [10], the cardiomyocyte size result was “smaller than that of control mice”, the heart weight entry is listed as “lighter than that of young mice”, the serum creatinine concentration result is recorded as “reduced” and the serum urea concentration entry is recorded as “reduced”. Further, in [10] (vs control mice), the “degree of fibrosis in the heart (MT staining)” value is “improved”, the “degree of glomerulosclerosis (PAS staining)” value was “improved”, the “degree of lung fibrosis (MT-stained area)” value is “improved” and the “degree of macrophage infiltration in the liver (anti-F4/80 immunostaining)” value is given as “improved”. In [11], the “accumulation of senescent cells associated with obesity (SA-β-gal, white adipose tissue)” value is given as “reduced”; the “degree of macrophage infiltration in white adipose tissue (anti-F4/80)” value is reported as “reduced”; the “size of adipocytes associated with obesity” value is recorded as “reduced”; the “weight of white adipose tissue” value is reported as “reduced”. In [12], the “aortic plaque area (Sudan IV-positive area)” value is given as “reduces” and the aortic plaque number entry is recorded as “reduces”. In test [13], the “IL-6 expression level in the liver (qPCR)” value is listed as “lowers”, the “KGA expression level in the liver (qPCR)” value is recorded as “lowers”, the “hydroxyproline (OH-Pro) level in the liver” value is given as “lowers” and the “p16 expression level in the liver (qPCR)” value is “lowers”. Moreover, the “serum AST level” value in test [13] is “lowers”.
Take `COC(=O)CCC(=O)C(=O)OC` [DM-KG]: in test [1] (BPTES 10 μM plus transmembrane α-ketoglutaric acid), the “rescue of senescent cell-selective cell death caused by BPTES” value is listed as “could hardly rescue”. In addition, in test [4] (BPTES plus DM-KG), the “rescue of the BPTES inhibitory effect on S6K T389 phosphorylation” value was “rescued”.
